Here are results for one compound from US5817670A, “Naphthyridine derivatives and pharmaceutical compositions thereof” (Yamanouchi Pharmaceutical Co., Ltd., priority 1994, dated 1998).

The target of assay [1] is T1, type II phosphodiesterase (Rattus norvegicus, UniProt Q01062).
T1 construct: purified from rat heart muscle cells; from tissue; host or cells: rat heart, soluble fraction, Q Sepharose
T1 sequence (Q01062 1-928): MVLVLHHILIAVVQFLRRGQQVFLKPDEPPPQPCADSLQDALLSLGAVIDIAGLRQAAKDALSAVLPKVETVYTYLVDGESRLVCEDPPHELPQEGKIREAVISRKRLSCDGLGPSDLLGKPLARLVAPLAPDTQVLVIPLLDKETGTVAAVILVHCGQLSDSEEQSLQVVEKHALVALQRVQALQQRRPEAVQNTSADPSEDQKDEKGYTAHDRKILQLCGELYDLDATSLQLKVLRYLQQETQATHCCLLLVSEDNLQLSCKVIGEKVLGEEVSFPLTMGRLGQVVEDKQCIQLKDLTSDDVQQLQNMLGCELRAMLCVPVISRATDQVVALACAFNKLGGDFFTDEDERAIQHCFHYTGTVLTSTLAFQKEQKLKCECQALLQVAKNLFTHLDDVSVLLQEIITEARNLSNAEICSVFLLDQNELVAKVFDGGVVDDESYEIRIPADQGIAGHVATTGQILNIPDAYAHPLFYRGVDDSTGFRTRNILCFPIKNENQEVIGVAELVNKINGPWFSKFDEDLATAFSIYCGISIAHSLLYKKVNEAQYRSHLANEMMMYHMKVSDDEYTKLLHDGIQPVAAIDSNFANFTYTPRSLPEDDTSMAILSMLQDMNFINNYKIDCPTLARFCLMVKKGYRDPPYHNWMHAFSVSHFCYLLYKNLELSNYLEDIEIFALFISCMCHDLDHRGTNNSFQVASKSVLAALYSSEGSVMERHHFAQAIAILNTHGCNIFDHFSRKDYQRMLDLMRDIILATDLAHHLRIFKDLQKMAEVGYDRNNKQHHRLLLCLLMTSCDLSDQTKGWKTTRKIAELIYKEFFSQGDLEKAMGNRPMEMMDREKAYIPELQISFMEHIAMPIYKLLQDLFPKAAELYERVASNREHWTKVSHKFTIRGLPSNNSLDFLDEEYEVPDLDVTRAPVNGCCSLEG
Description: Phosphodiesterase inhibition activity (in vitro), Type II. Format: biochemical. As to conditions: Type II phosphodiesterase column. The source says: (§1) (A) In order to evaluate selectivity of the compounds of the present invention for type IV phosphodiesterase, types I, II, III and V phosphodiesterase isozymes were purified in the following manner.
1) Solutions containing various phosphodiesterase (types I, II and III) isozymes were purified from rat heart muscle cells in the following manner. Under ether anesthesia, Wistar rat was subjected to thoracotomy to excise the heart. After removing blood by perfusion with physiological saline supplemented with heparin (1 unit/ml), the heart was finely chopped with scissors. This was suspended in buffer A (20 mM Bis-Tris, 5 mM dithioerythritol, 2 mM EGTA and 50 mM sodium acetate, pH 6.5) containing a protease inhibitor (50 μM phenyl-methyl-sulfonyl-fluoride, 5 μM pepstatin A, 40 μM leupeptin, 20 μM aprotinin or 2 mM benzamidine) and then the cells were disrupted using polytron and sonicator and subjected to ultracentrifugation (4° C., 100,000×g, 60 minutes) to give a soluble fraction.
(§2) 2) Solutions containing various phosphodiesterase isozymes were obtained from the thus obtained soluble fraction in the following manner. The thus, obtained soluble fraction was applied to a column of 1.6×10.0 cm packed with Q Sepharose which had been equilibrated with buffer A. Next, said column was washed with 300 ml of buffer A to remove non-absorbed protein. Phosphodiesterase was eluted with 200 ml of buffer A having 0.05 to 1.25M linear gradient of sodium acetate to collect about 40 fractions each containing 5.0 ml eluate. Each fraction was checked for cAMP- and cGMP-metabolizing phosphodiesterase activities. Of these fractions, a fraction having only cAMP-metabolizing activity and showing disappearance of the metabolizing activity by 0.1 μM cilostamide (a type III phosphodiesterase selective inhibitor) was used as the type III phosphodiesterase. […] These fractions were separately collected to be used as phosphodiesterase (types I, II and III) stock solutions for the examination of selectivity. p1 3) A solution containing type V phosphodiesterase was prepared from peripheral blood of a healthy person in the following manner. A 200 ml portion of physiological saline supplemented with dextran (3%) was added to 500 ml of heparinized peripheral blood and incubated at 37° C. for 40 minutes to effect precipitation of erythrocytes. The supernatant fluid after precipitation of erythrocytes was recovered and centrifuged once, and the resulting precipitate was suspended in buffer B (140 mM NaCl, 5 mM KCl, 5 mm glucose and 10 mM HEPES, pH 7.4), overlaid on a solution for density gradient centrifugation use (Ficoll solution) and then centrifuged at room temperature for 40 minutes at 450×g, thereby separating monocyte fraction and granulocyte fraction. The granulocyte fraction was washed once with buffer C (140 mM NaCl, 5 mM KCl, 1 mM CaCl2, 1 mM MgCl2, 5 mM glucose and 10 mM HEPES, pH 7.4) and suspended in buffer D (20 mM Bis-Tris, 5 mM dithioerythritol, 2 mM EGTA and 50 mM sodium acetate, pH 6.5) containing a protease inhibitor (40 μM leupeptin, 5 μM pepstatin A, 20 μM aprotinin, 50 μM phenyl-methyl-sulfonyl-fluoride or 2 mM benzamidine) and then the cells were disrupted using polytron and sonicator and subjected to ultracentrifugation (4° C., 100,000×g, 60 minutes) to give a soluble fraction.
(§3) (B) Inhibitory activities were measured using the thus obtained stock solutions of various phosphodiesterase isozymes.
(§4) 1) A predetermined amount of each compound to be tested was subjected to 10 minutes of reaction at 30° C. in a reaction mixture containing 40 mM Tris-HCl (pH 8.0), 5 mM MgCl2, 4 mM 2-mercaptoethanol, 10 μM rolipram (a type IV phosphodiesterase selective inhibitor), 1 μM cAMP, 10 nM ^3 H-cAMP (in the case of type V phosphodiesterase, 1 μM cAMP and 10 nM ^3 H-cAMP are replaced by 1 μM cGMP and 100 nM ^3 H-cGMP) and each of the isozyme stock solutions. […]

Another assay deals with T2, type V phosphodiesterase (Homo sapiens, UniProt O76074).
T2 construct: from tissue; host or cells: human peripheral blood granulocyte fraction, soluble, Q Sepharose
Description: Phosphodiesterase inhibition activity (in vitro), Type V. The format is biochemical, human (peripheral blood of a healthy person). As to conditions: 1 μM cGMP.
Text: as §1, §2
4) The thus obtained soluble fraction was applied to a column of 1.6×10 cm packed with Q Sepharose which had been equilibrated with buffer D. Next, the column was washed with 120 ml of buffer D to remove non-absorbed protein. Phosphodiesterase was eluted with 300 ml of buffer D having 0.05 to 1.25M linear gradient of sodium acetate to collect fractions each containing 5.0 ml eluate. Each fraction was checked for cAMP- and cGMP-metabolizing phosphodiesterase activities. Fractions having only cGMP metabolizing activity were collected to be used as the type V phosphodiesterase stock solution.
as §3
as §4, with “solutions. After completion of the reaction, the reaction mixture was boiled at 90° C. for 1 minute, ice-cooled, mixed with 1 unit of 5'-nucleotidase and then subjected to 10 minutes of reaction at 30° C., and the reaction was stopped by adding 1 ml of methanol.” for “solutions.”

Broadly, the IC50 is the concentration needed to halve the response being measured. A low value points to higher potency. For the compound `CCc1cc(C)c2c(-c3cccc(Cl)c3)cc(=O)n(CC)c2n1` [Example 39, 4-(3-Chlorophenyl)-1,7-diethyl-5-methyl-1,8-naphthyridin-2(1H)-one], the IC50 in assay [1] is over 3000 nM; at type V phosphodiesterase, 1050 nM.
